Measured values as given in article PMC5085689, “Cinnamide Derivatives as Mammalian Arginase Inhibitors: Synthesis, Biological Evaluation and Molecular Docking” (International Journal of Molecular Sciences, 2016).
Values joined by “and” are separate entries in the source; they are usually repeats but may differ in a detail not shown here. Identical values can stand only once. Like-named read-outs stand apart in the source and are kept apart here.

Columns and labels:
b-ARG I = target: T1, b-ARG I (Bos taurus, UniProt Q2KJ64); experiment: Enzyme kinetic study and determination of Ki values on b-ARG I; type: biochemical, bovine; conditions: for Type of Inhibition: Lineweaver–Burk, Dixon and Cornish–Bowden plots
T1 construct: commercially-available purified bovine arginase (b-ARG I) instead of animal tissue; purchased MP Biomedicals; host or cells: bovine liver (enzyme purified from tissue)
T1 sequence (Q2KJ64 1-322): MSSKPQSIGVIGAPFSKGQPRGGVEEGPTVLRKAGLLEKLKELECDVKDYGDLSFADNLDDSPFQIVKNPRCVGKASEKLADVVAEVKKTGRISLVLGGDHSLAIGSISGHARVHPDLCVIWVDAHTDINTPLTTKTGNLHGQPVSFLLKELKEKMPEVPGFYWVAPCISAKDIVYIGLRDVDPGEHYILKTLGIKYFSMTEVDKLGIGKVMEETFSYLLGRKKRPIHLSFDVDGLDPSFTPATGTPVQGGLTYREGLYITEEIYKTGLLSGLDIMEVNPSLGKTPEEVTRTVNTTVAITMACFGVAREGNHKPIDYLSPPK

[1] = target: T2, purified liver bovine arginase (b-ARG I) (Bos taurus, UniProt Q2KJ64); experiment: In vitro colorimetric microassay of arginase inhibition on purified bovine liver arginase; type: biochemical; conditions: for inhibition at 100 µM: read-out: b-ARG I Inhibition (%) (100 μM);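 for all read-outs here: urea formed from L-arginine detected colorimetrically with alpha-isonitrosopropiophenone at 550 nm after 60 min at 37 °C, inhibition relative to solvent controls taken as 100% arginase activity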
T2 construct: commercially-available purified bovine arginase (b-ARG I) instead of animal tissue; purchased MP Biomedicals; host or cells: bovine liver (enzyme purified from tissue)
T2 sequence (Q2KJ64 1-322): T1 sequence (Q2KJ64 1-322)

[2] = target: T3, recombinant human arginase I (h-ARG I) (Homo sapiens, UniProt P05089); experiment: In vitro colorimetric microassay of arginase inhibition on recombinant human arginase I; type: biochemical
T3 construct: purchased Interchim BXC572/n P0408M10
T3 sequence (P05089 1-322): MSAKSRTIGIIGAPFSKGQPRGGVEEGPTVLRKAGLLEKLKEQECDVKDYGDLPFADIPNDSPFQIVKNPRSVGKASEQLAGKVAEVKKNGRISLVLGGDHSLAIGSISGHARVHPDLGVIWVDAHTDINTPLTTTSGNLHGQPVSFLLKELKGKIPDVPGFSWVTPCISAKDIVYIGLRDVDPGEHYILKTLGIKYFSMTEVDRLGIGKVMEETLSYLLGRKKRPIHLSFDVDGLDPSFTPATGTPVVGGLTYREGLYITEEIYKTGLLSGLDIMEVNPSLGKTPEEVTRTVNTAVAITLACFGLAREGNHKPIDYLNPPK

[3] = b-ARG I, Cheng–Prusoff equation, [S] = 14.3 mM L-arginine, Km = 55.5 ± 10.5 µM, read-out: Ki
[4] = 100 μM final concentration, three separate in-duplicate experiments
[5] = purified bovine liver arginase, three separate in-triplicate experiments, read-out: IC50 (b-ARG I)

| SMILES | inhibition at 100 µM [1, 4] [%] | IC50 [1, 5] [µM] | also measured |
| --- | --- | --- | --- |
| O=C(/C=C/c1ccc(O)c(O)c1)O[C@@H]1C[C@](O)(C(=O)O)C[C@@H](O)[C@H]1O [CGA, chlorogenic acid, reference compound] |  |  | Ki (b-ARG I): 8.4 ± 1.2 µM; Type of Inhibition (b-ARG I; b-ARG I): competitive; IC50 ([1]; IC50 (b-ARG I), purified bovine liver arginase, three separate in-triplicate experiments): < 50 µM and 10.6 µM; inhibition at 100 µM [1]: 71 ± 1% |
| O=C(O)/C=C/c1ccc(O)c(O)c1 [Caffeic acid, reference compound] |  |  | IC50 [1]: 86.7 ± 8 µM |
| O=C(/C=C/c1ccc(O)c(O)c1)NCCc1ccccc1 [Compound 1, (E)-N-(2-Phenylethyl)-3,4-dihydroxycinnamide] | 64 ± 2 | 6.9 ± 1.3 | Ki (b-ARG I; [3]): 5.5 ± 1 µM; Type of Inhibition (b-ARG I; b-ARG I, listed as CAPA): competitive inhibitor; Type of Inhibition (b-ARG I; b-ARG I, listed as CAPA (1)): competitive; IC50 [2]: 60.3 ± 7.8 µM |
| COc1cc(/C=C/C(=O)NCCc2ccccc2)ccc1O [Compound 2, (E)-N-(2-Phenylethyl)-3-methoxy-4-hydroxycinnamide] | 37 ± 4 |  |  |
| O=C(/C=C/c1ccc(O)cc1)NCCc1ccccc1 [Compound 3, (E)-N-(2-Phenylethyl)-4-hydroxycinnamide] | 31 ± 4 |  |  |
| COc1cc(/C=C/C(=O)NCCc2ccccc2)cc(OC)c1OC [Compound 4, (E)-N-(2-Phenylethyl)-3,4,5-trimethoxycinnamide] | 35 ± 2 |  |  |
| O=C(/C=C/c1ccccc1)NCCc1ccccc1 [Compound 5, (E)-N-(2-Phenylethyl)cinnamide] | 34 ± 2 |  |  |
| O=C(/C=C/c1ccc(O)c(O)c1)NCCc1ccc(O)cc1 [Compound 6, (E)-N-(2-(4-Hydroxyphenyl)ethyl)-3,4-dihydroxycinnamide] | 58 ± 2 | 22.1 ± 1.6 |  |
| COc1cc(/C=C/C(=O)NCCc2ccc(O)cc2)ccc1O [Compound 7, (E)-N-(4-Hydroxyphenethyl)-3-methoxy-4-hydroxycinnamide] | 24 ± 2 |  |  |
| O=C(/C=C/c1ccc(O)cc1)NCCc1ccc(O)cc1 [Compound 8, (E)-N-(4-Hydroxyphenethyl)-4-hydroxycinnamide] | 40 ± 2 |  |  |
| COc1cc(/C=C/C(=O)NCCc2ccc(O)cc2)cc(OC)c1OC [Compound 9, (E)-N-(4-Hydroxyphenethyl)-3,4,5-trimethoxycinnamide] | 30 ± 2 |  |  |
| O=C(/C=C/c1ccccc1)NCCc1ccc(O)cc1 [Compound 10, (E)-N-(4-Hydroxyphenethyl)-cinnamide] | 34 ± 3 |  |  |
| O=C(/C=C/c1ccc(O)c(O)c1)NCCc1ccc(O)c(O)c1 [Compound 11, (E)-N-(3,4-Dihydroxyphenethyl)-3,4-dihydroxycinnamide] | 62 ± 3 | 115 ± 1.3 |  |
| COc1cc(/C=C/C(=O)NCCc2ccc(O)c(O)c2)ccc1O [Compound 12, (E)-N-(3,4-Dihydroxyphenethyl)-3-methoxy-4-hydroxycinnamide] | 61 ± 3 | 198.7 ± 1.4 |  |
| O=C(/C=C/c1ccc(O)cc1)NCCc1ccc(O)c(O)c1 [Compound 13, (E)-N-(3,4-Dihydroxyphenethyl)-4-hydroxycinnamide] | 54 ± 1 | 170.4 ± 1.7 |  |
| COc1cc(/C=C/C(=O)NCCc2ccc(O)c(O)c2)cc(OC)c1OC [Compound 14, (E)-N-(3,4-Dihydroxyphenethyl)-3,4,5-trimethoxycinnamide] | 53 ± 1 | 193.6 ± 1.4 |  |
| O=C(/C=C/c1ccccc1)NCCc1ccc(O)c(O)c1 [Compound 15, (E)-N-(3,4-Dihydroxyphenethyl)cinnamide] | 68 ± 3 | 39.3 ± 1.4 |  |
| O=C(/C=C/c1ccc(O)c(O)c1)Nc1ccc(O)cc1 [Compound 16, (E)-N-(4-Hydroxyphenyl)-3,4-dihydroxycinnamide] | 59 ± 1 | 35.6 ± 1.3 |  |
| O=C(NCCc1ccc(O)cc1)c1ccc(O)c(O)c1 [Compound 17, N-(4-Hydoxyphenethyl)-3,4-dihydroxybenzamide] | 52 ± 2 | 175.3 ± 1.5 |  |
| COC(=O)C(Cc1ccc(O)c(O)c1)NC(=O)C=Cc1ccc(O)c(O)c1 (stereo not shown) [Compound 18, 3-(3,4-Dihydroxyphenyl)-2-[3-(3,4-dihydroxyphenyl)-acryloylamino]-propionic acid methyl ester] | 62 ± 1 | 41.9 ± 1.3 |  |
| COC(=O)[C@H](CS)NC(=O)/C=C/c1ccc(O)c(O)c1 [Compound 19, (E)-N-(3,4-Dihydroxycinnamoyl)-L-cysteine methyl ester] | 67 ± 1 | 37 ± 1.3 |  |
| N=C(NO)NCC[C@H](N)C(=O)O [nor-NOHA, N^ω-hydroxy-nor-L-arginine, reference compound] | 99 ± 1 | 1.7 ± 0.2 | Ki (b-ARG I; [3]): 1.3 ± 0.1 µM; Type of Inhibition (b-ARG I; b-ARG I): competitive |
